# Target: T1, human TLR7 (hTLR7) (Homo sapiens, UniProt Q9NYK1)
# T1 construct: expressed in transfected cells
# T1 sequence (Q9NYK1 27-1049): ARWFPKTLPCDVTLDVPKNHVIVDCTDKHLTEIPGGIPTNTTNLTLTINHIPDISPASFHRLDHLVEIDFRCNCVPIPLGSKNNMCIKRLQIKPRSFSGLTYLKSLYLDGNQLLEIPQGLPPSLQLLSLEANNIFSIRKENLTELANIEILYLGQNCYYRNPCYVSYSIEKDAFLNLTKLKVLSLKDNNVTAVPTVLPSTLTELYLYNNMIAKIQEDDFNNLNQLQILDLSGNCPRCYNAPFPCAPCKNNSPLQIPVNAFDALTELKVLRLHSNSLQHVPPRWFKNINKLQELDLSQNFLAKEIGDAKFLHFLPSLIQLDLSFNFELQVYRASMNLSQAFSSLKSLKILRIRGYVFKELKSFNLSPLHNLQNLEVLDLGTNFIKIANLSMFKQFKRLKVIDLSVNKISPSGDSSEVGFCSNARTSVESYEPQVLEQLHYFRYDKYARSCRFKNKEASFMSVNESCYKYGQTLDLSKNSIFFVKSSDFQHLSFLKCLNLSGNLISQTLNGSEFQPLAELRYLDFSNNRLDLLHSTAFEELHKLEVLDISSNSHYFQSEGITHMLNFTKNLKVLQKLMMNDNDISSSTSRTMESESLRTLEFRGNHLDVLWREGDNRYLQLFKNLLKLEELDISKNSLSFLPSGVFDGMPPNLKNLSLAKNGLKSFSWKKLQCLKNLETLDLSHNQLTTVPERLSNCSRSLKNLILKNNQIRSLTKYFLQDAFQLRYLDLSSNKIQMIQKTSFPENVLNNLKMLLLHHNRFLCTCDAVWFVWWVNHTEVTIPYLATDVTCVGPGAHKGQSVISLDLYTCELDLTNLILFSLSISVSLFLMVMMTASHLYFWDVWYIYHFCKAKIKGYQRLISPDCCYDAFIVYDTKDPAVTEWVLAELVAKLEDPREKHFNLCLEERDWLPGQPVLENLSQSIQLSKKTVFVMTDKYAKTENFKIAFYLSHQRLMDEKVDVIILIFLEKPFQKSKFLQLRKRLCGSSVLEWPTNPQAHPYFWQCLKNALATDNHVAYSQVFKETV
# Experiment: Antagonist screen, hTLR7-NFκB-293 cells, NF-κB-luciferase reporter, with EC50 of R848
# Assay type: cell-based
# Details: compound at 0.5, 5, 50 μg/ml; EC50 concentration of R848; 16 h; NF-κB-luciferase
# Description: The method is described in greater detail as follows. The cells for each individual cell clone (hTLR3-NFκB-293, hTLR7-NFκB-293, hTLR8-NFκB-293 and hTLR9-NFκB-293) were counted and seeded one day before the stimulation at 1.5×10^4 cells per well in 96-well cell culture plates. To become adherent the cells were incubated after seeding overnight at 37° C. in 5% CO2 humidified air.
# The screen for each compound was performed at the same time for all of the receptors TLR3, TLR7, TLR8 and TLR9. Up to fifteen test compounds, each assayed in duplicate at each of three different final concentrations (0.5 μg/ml, 5 μg/ml, and 50 μg/ml), were used for 16 h cell stimulation on a single multiwell culture plate. A 4× final concentration master plate was created to prepare the different test compounds before they were added to the cells.
# Controls were added as duplicates individually for each cell clone on the cell culture plate. Positive controls were used as follows (final concentrations): 50 μg/ml poly(I:C) for hTLR3-NFκB-293; 8 μM resiquimod (R848) for hTLR7-NFκB-293; 30 μM R848 for hTLR8-NFκB-293; and 2.5 μM CpG-ODN 2006 for hTLR9-NFκB-293. Media alone was used as negative control. After addition of controls and small molecules, the cell clones were additionally stimulated with the EC50 concentration of the appropriate receptor-specific ligand.
# The mean value of wells H2 and H5 (each with cells and EC50 concentration of the appropriate receptor-specific ligand) divided by the mean of wells H3 and H6 (each with cells alone) yielded the baseline response (i.e., fold induction of luciferase activity) to EC50 concentration of the appropriate receptor-specific ligand.
# After 16 h stimulation the supernatant was removed and the cells treated with lysis buffer and stored at −80° C. before measuring.
# For each screen result a graphical documentation was performed.
# The baseline result (measured with addition of the EC50 concentration of the receptor-specific ligand) for each cell culture plate was measured as described above. Antagonistic effects were measured by down regulation compared to the baseline. Antagonists were scored as follows: • 13: compounds for which there was clear down regulation at 0.5 μg/ml, 5 μg/ml, and 50 μg/ml; • 12: compounds for which there was clear down regulation at 5 μg/ml and 50 μg/ml; • 11: compounds for which there was clear down regulation only at 50 μg/ml; • —: compounds for which there was no clear down regulation even at 50 μg/ml. Agonists
# Results were expressed as fold induction over baseline luciferase activity measured in the absence of R848. […] Additional screening was performed in like manner using additional small molecules selected from another library or specifically prepared for this purpose. Scoring is reported as above but as applied to TLR7.
row,Molecule,"hTLR7 (inhibitory effect, antagonist score)"
1,CCOCCOC(=O)c1cc([N+](=O)[O-])cc2c1-c1c(cc([N+](=O)[O-])cc1[N+](=O)[O-])C2=C(C#N)C#N [compound 1241],— (compounds for which there was no clear down regulation even at 50 μg/ml)
2,"CN(C)CCCN1c2ccccc2Sc2ccccc21.Cl [compound 693, Promazinehydrochloride]",12 (compounds for which there was clear down regulation at 5 μg/ml and 50 μg/ml)
3,"c1ccc2c(c1)[nH]c1cnccc12 [compound 470, norharman]",11 (compounds for which there was clear down regulation only at 50 μg/ml)
4,O=C1c2ccccc2C(=O)c2c1ccc1c(=O)n(-c3ccccc3)[nH]c21 [compound 1042],12 (compounds for which there was clear down regulation at 5 μg/ml and 50 μg/ml)
5,"Clc1ccccc1C(c1ccccc1)(c1ccccc1)n1ccnc1 [compound 267, Clotrimazole]",12 (compounds for which there was clear down regulation at 5 μg/ml and 50 μg/ml)
6,"CN1CCN(C(c2ccccc2)c2ccccc2)CC1.Cl [compound 510, Cyclizine hydrochloride]",— (compounds for which there was no clear down regulation even at 50 μg/ml)
7,O=C1c2ccccc2C(=O)c2c1ccc1c(=O)n(C3CCCCC3)[nH]c21 [compound 1015],— (compounds for which there was no clear down regulation even at 50 μg/ml)
8,O=C(O)c1cc(C(c2ccc(O)c(C(=O)O)c2)C(Cl)(Cl)Cl)ccc1O [compound 884],11 (compounds for which there was clear down regulation only at 50 μg/ml)
9,Metixene hydrochloride [compound 491],11 (compounds for which there was clear down regulation only at 50 μg/ml)
10,"CC[C@]12CCCN3CCc4c(n(c5ccccc45)C(=O)C1)[C@@H]32 [compound 607, Eburnamonine]",11 (compounds for which there was clear down regulation only at 50 μg/ml)
11,NC(=O)c1cccc2c1-c1ccccc1C2 [compound 1132],11 (compounds for which there was clear down regulation only at 50 μg/ml)
12,"Cl.Cl.c1ccc2c3c([nH]c2c1)C1C2CCC(C4CCCNC42)N1CC3 (stereo not drawn) [compound 685, Nitrarine dihydorchloride]",— (compounds for which there was no clear down regulation even at 50 μg/ml)
13,"CN(C)CC/C=C1/c2ccccc2CSc2ccccc21.Cl [compound 488, Dosulepin hydrochloride]",— (compounds for which there was no clear down regulation even at 50 μg/ml)
14,"Cc1cccc(CN2CCN(C(c3ccccc3)c3ccc(Cl)cc3)CC2)c1.Cl.Cl (stereo not drawn) [compound 457, Meclozinedihydrochioride]",— (compounds for which there was no clear down regulation even at 50 μg/ml)
15,"CNCCCN1c2ccccc2CCc2ccccc21.Cl [compound 343, Desipraminehydrochloride]",12 (compounds for which there was clear down regulation at 5 μg/ml and 50 μg/ml)
16,O=C(O)c1ccc(C2(c3ccc(C(=O)O)cc3)OC(=O)c3ccccc32)cc1 [compound 970],— (compounds for which there was no clear down regulation even at 50 μg/ml)
17,C=CCc1ccccc1OC1(c2ccccc2)OC(=O)c2ccccc21 (stereo not drawn) [compound 957],11 (compounds for which there was clear down regulation only at 50 μg/ml)
18,"CN1CCC(OC(c2ccccc2)c2ccccc2)CC1.Cl [compound 707, Diphenylpyralinehydrochloride]",11 (compounds for which there was clear down regulation only at 50 μg/ml)
